Experimental data from ChEMBL document CHEMBL1777706, “Discovery of selective and orally available spiro-3-piperidyl ATP-competitive MK2 inhibitors” (Bioorg Med Chem Lett, 2011).
Activity calls are given as the source filed them. The rule behind the calls is not given here.

tested on: not listed separately; assay: AUC in po dosed rat; assay type: ADME, organism-based; settings: plasma

Compound | AUC [µM·h]
O=C1NCC2(CCCNC2)c2[nH]c(-c3ccnc(-c4ccc5c(c4)OCO5)n3)cc21 (racemic) | 3.21
CN1CCC2(CC1)CNC(=O)c1cc(-c3ccnc(-c4cc5ccccc5o4)n3)[nH]c12 | 0.078

target: Serine/threonine-protein kinase Chk2 (Homo sapiens) (UniProt O96017); assay: Inhibition of CHK2 at 1 uM; settings: not given
Sequence (O96017 whole entry): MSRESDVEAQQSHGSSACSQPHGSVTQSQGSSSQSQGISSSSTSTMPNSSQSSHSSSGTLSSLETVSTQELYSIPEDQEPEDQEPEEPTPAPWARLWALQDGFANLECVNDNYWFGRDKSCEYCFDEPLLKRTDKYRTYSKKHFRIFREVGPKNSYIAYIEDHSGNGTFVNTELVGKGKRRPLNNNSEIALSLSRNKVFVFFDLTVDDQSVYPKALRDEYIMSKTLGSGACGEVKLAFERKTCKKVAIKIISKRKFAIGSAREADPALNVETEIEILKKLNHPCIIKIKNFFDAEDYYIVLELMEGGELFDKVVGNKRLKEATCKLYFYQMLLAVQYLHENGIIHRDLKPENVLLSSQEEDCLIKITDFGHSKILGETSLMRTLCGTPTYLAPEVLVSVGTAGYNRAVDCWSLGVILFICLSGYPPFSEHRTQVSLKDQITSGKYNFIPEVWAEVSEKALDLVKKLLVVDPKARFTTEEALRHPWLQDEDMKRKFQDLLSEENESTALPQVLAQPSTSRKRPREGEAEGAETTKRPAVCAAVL

Compound | inhibition [%]
O=C1NCC2(CCCNC2)c2[nH]c(-c3ccnc(-c4ccc5c(c4)OCO5)n3)cc21 (racemic) | > 80
CN1CCC2(CC1)CNC(=O)c1cc(-c3ccnc(-c4cc5ccccc5o4)n3)[nH]c12 | > 80

target: Serine/threonine-protein kinase pim-3 (Homo sapiens) (UniProt Q86V86); assay: Inhibition of PIM3 at 1 uM; settings: not given

Compound | inhibition [%]
O=C1NCC2(CCCNC2)c2[nH]c(-c3ccnc(-c4ccc5c(c4)OCO5)n3)cc21 (racemic) | > 80
CN1CCC2(CC1)CNC(=O)c1cc(-c3ccnc(-c4cc5ccccc5o4)n3)[nH]c12 | > 80

tested on: not listed separately; assay: Inhibition of p38; settings: not given

Compound | inhibition
O=C1NCC2(CCCNC2)c2[nH]c(-c3ccnc(-c4ccc5c(c4)OCO5)n3)cc21 (racemic) | inactive
CN1CCC2(CC1)CNC(=O)c1cc(-c3ccnc(-c4cc5ccccc5o4)n3)[nH]c12 | inactive

target: T1, MAP kinase-activated protein kinase 2 (Homo sapiens, UniProt P49137); assay: Inhibition of MK2 in LPS-stimulated human THP1 cells assessed as inhibition of Hsp27 phosphorylation pretreated 60 mins before LPS challenge measured after 10 mins; assay type: cell-based, THP-1; settings: not given
T1 sequence (P49137 whole entry): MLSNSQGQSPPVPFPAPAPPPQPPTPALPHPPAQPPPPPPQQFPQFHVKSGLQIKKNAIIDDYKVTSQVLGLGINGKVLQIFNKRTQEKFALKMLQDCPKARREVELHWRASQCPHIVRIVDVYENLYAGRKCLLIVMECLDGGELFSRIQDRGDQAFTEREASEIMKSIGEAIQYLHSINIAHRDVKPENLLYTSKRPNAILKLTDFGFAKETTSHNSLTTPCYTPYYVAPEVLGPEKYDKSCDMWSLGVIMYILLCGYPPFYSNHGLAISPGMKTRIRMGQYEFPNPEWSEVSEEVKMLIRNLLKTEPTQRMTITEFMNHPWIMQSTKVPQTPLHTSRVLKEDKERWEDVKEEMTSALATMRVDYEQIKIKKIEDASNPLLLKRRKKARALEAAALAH

Compound | EC50 [nM]
O=C1NCC2(CCCNC2)c2[nH]c(-c3ccnc(-c4ccc5c(c4)OCO5)n3)cc21 (racemic) | 930
CN1CCC2(CC1)CNC(=O)c1cc(-c3ccnc(-c4cc5ccccc5o4)n3)[nH]c12 | 1600

target: Mitogen-activated protein kinase 3 (Homo sapiens) (UniProt P27361); assay: Inhibition of ERK1 at 1 uM; settings: not given
Sequence (P27361 whole entry): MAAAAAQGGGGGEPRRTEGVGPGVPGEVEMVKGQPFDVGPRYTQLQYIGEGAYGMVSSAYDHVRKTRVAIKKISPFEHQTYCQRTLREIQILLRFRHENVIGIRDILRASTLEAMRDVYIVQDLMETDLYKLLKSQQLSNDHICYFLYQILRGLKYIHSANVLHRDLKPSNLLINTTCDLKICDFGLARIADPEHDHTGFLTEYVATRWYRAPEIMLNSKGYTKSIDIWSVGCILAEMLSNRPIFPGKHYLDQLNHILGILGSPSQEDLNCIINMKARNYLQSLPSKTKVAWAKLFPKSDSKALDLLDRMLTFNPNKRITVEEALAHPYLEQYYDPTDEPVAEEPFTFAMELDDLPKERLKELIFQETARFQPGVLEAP

Compound | inhibition [%]
O=C1NCC2(CCCNC2)c2[nH]c(-c3ccnc(-c4ccc5c(c4)OCO5)n3)cc21 (racemic) | > 80
CN1CCC2(CC1)CNC(=O)c1cc(-c3ccnc(-c4cc5ccccc5o4)n3)[nH]c12 | > 80

tested on: PBMC; assay: Antiinflammatory activity in human PBMC cells assessed as inhibition of LPS-induced TNFalpha production pretreated 30 mins before LPS challenge measured after 4 hrs by ELISA; assay type: functional, cell-based; settings: not given

Compound | EC50 [nM]
O=C1NCC2(CCCNC2)c2[nH]c(-c3ccnc(-c4ccc5c(c4)OCO5)n3)cc21 (racemic) | 1100

target: T2, Serine/threonine-protein kinase 17A (Homo sapiens) (UniProt Q9UEE5); assay: Inhibition of DRAK1 at 1 uM; settings: not given
T2 sequence (whole entry): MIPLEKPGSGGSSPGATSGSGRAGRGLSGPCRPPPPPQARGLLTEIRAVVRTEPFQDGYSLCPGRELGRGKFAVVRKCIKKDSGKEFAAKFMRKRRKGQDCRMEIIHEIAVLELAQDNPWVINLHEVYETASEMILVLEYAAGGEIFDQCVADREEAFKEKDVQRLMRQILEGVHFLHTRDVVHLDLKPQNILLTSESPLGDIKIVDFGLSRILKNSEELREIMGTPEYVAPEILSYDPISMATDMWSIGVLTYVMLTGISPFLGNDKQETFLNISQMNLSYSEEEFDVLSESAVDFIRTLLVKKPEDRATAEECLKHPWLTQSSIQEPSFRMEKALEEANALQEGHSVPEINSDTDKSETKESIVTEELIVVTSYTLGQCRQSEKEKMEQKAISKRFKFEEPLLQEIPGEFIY

Compound | inhibition [%]
O=C1NCC2(CCCNC2)c2[nH]c(-c3ccnc(-c4ccc5c(c4)OCO5)n3)cc21 (racemic) | > 80
CN1CCC2(CC1)CNC(=O)c1cc(-c3ccnc(-c4cc5ccccc5o4)n3)[nH]c12 | > 80

tested on: not listed separately; assay: Oral bioavailability in mouse; assay type: ADME, organism-based; settings: in vivo

bioavailability [%] | Compound
48 | O=C1NCC2(CCCNC2)c2[nH]c(-c3ccnc(-c4ccc5c(c4)OCO5)n3)cc21 (racemic)

tested on: not listed separately; assay: Half life in rat liver microsomes; assay type: ADME, Microsome; settings: not given

Compound | half-life [h]
O=C1NCC2(CCCNC2)c2[nH]c(-c3ccnc(-c4ccc5c(c4)OCO5)n3)cc21 (racemic) | 0.808
CN1CCC2(CC1)CNC(=O)c1cc(-c3ccnc(-c4cc5ccccc5o4)n3)[nH]c12 | > 1

tested on: THP-1; assay: Cytotoxicity against human THP1 cells by Alamar blue assay; assay type: cell-based; settings: not given

Compound | Activity [µM]
CN1CCC2(CC1)CNC(=O)c1cc(-c3ccnc(-c4cc5ccccc5o4)n3)[nH]c12 | > 10

tested on: not listed separately; assay: Dissociation constant, pKa of the compound at pH 7.4; assay type: physicochemical; settings: not given

Compound | pKa
O=C1NCC2(CCCNC2)c2[nH]c(-c3ccnc(-c4ccc5c(c4)OCO5)n3)cc21 (racemic) | 8.3
CN1CCC2(CC1)CNC(=O)c1cc(-c3ccnc(-c4cc5ccccc5o4)n3)[nH]c12 | 8.1

tested on: THP-1; assay: Antiinflammatory activity in human THP1 cells assessed as inhibition of LPS-induced TNFalpha production pretreated 30 mins before LPS challenge measured after 4 hrs; assay type: functional, cell-based; settings: not given

Compound | EC50 [nM]
O=C1NCC2(CCCNC2)c2[nH]c(-c3ccnc(-c4ccc5c(c4)OCO5)n3)cc21 (racemic) | 1400
CN1CCC2(CC1)CNC(=O)c1cc(-c3ccnc(-c4cc5ccccc5o4)n3)[nH]c12 | 470

target: T3, MAP kinase-activated protein kinase 5 (Homo sapiens) (UniProt Q8IW41); assay: Inhibition of MK5 at 1 uM; settings: not given
T3 sequence (whole entry): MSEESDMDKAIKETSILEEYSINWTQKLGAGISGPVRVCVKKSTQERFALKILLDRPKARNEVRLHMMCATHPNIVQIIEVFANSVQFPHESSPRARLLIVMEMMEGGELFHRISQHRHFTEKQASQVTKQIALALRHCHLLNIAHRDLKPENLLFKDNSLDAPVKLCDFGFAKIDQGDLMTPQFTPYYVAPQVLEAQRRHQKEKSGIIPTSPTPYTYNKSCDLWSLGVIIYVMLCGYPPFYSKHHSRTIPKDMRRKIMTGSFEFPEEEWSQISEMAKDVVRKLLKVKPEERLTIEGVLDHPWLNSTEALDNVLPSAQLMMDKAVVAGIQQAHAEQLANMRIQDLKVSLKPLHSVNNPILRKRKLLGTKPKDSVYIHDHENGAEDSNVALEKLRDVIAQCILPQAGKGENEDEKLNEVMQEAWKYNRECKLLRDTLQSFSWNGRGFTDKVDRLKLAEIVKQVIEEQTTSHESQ

inhibition [%] | Compound
> 95 | O=C1NCC2(CCCNC2)c2[nH]c(-c3ccnc(-c4ccc5c(c4)OCO5)n3)cc21 (racemic)

tested on: not listed separately; assay: Half life in human liver microsomes; assay type: ADME, Microsome; settings: not given

Compound | half-life [h]
O=C1NCC2(CCCNC2)c2[nH]c(-c3ccnc(-c4ccc5c(c4)OCO5)n3)cc21 (racemic) | > 1
CN1CCC2(CC1)CNC(=O)c1cc(-c3ccnc(-c4cc5ccccc5o4)n3)[nH]c12 | > 1

target: Mitogen-activated protein kinase 1 (Homo sapiens) (UniProt P28482); assay: Inhibition of ERK2 at 1 uM; settings: not given
Sequence (P28482 whole entry, looked up): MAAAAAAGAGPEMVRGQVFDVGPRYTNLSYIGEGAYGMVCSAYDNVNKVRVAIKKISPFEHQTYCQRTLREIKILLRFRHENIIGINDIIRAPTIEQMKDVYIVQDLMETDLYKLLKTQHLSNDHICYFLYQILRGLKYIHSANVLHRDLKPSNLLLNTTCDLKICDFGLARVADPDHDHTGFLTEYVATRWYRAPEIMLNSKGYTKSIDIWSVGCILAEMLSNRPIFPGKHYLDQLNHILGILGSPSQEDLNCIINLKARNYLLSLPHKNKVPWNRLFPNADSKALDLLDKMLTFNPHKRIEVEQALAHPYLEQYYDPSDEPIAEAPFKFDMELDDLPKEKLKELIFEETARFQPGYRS

Compound | inhibition [%]
O=C1NCC2(CCCNC2)c2[nH]c(-c3ccnc(-c4ccc5c(c4)OCO5)n3)cc21 (racemic) | > 80
CN1CCC2(CC1)CNC(=O)c1cc(-c3ccnc(-c4cc5ccccc5o4)n3)[nH]c12 | > 80

target: Serine/threonine-protein kinase pim-1 (Homo sapiens) (UniProt P11309); assay: Inhibition of PIM1 at 1 uM; settings: not given
Sequence (P11309 whole entry, looked up): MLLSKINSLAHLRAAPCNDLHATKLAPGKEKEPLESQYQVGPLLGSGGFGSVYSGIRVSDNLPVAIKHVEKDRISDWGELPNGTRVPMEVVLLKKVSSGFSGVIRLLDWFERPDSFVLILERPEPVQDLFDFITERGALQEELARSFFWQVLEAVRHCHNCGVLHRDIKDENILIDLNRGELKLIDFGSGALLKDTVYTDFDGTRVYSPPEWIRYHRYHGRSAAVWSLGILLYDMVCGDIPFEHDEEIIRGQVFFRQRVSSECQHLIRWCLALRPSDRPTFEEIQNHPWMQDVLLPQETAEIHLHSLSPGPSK

Compound | inhibition [%]
O=C1NCC2(CCCNC2)c2[nH]c(-c3ccnc(-c4ccc5c(c4)OCO5)n3)cc21 (racemic) | > 80
CN1CCC2(CC1)CNC(=O)c1cc(-c3ccnc(-c4cc5ccccc5o4)n3)[nH]c12 | > 80

target: T1, MAP kinase-activated protein kinase 2; assay: Inhibition of MK2 pretreated for 30 mins before fluorescein labeled substrate peptide addition measured after 2 hrs by IMAP assay; settings: not given

Compound | EC50 [nM]
O=C1NCC2(CCCNC2)c2[nH]c(-c3ccnc(-c4ccc5c(c4)OCO5)n3)cc21 (racemic) | 28
CN1CCC2(CC1)CNC(=O)c1cc(-c3ccnc(-c4cc5ccccc5o4)n3)[nH]c12 | 13

tested on: not listed separately; assay: in vitro; settings: human, Caco-2
Description: Permeability across human Caco2 cells

Compound | Papp [×10⁻⁶ cm/s]
O=C1NCC2(CCCNC2)c2[nH]c(-c3ccnc(-c4ccc5c(c4)OCO5)n3)cc21 (racemic) | 3.4
CN1CCC2(CC1)CNC(=O)c1cc(-c3ccnc(-c4cc5ccccc5o4)n3)[nH]c12 | 1

target: MAP kinase-activated protein kinase 3 (Homo sapiens) (UniProt Q16644); assay: Inhibition of MK3 at 1 uM; settings: not given
Sequence (Q16644 whole entry, looked up): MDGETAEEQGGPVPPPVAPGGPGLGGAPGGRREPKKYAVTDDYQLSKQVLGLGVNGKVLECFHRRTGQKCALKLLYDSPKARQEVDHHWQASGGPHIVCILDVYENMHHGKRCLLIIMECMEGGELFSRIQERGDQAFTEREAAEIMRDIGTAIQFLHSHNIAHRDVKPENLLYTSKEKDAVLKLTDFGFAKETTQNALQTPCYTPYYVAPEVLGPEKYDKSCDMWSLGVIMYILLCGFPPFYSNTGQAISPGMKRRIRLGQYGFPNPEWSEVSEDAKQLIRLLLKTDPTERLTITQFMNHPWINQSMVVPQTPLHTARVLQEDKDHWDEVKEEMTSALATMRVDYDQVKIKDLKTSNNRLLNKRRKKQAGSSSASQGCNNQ

inhibition [%] | Compound
> 95 | O=C1NCC2(CCCNC2)c2[nH]c(-c3ccnc(-c4ccc5c(c4)OCO5)n3)cc21 (racemic)
